These results are taken from US20160122307A1, “PERHYDROQUINOXALINE DERIVATIVES” (DR. AUGUST WOLFF GMBH & CO. KG ARZNEIMITTEL, priority 2013, published 2016).

Where two headings read alike, the source gives them in different places. Bounds are passed on as bounds.

This assay concerns the target Human opiate κ receptors (Homo sapiens, UniProt P41145). The assay can be described thus: κ opioid receptor functional assay, [35S]GTPγS binding (assay C). In kind it is biochemical. The settings on record: for activation at 1 µM: 0.5 h, read-out: % activation functional assay at 1 μM.

Usually EC50 stands for the midpoint of the concentration-response curve.

Chain of Human opiate κ receptors (P41145 whole entry): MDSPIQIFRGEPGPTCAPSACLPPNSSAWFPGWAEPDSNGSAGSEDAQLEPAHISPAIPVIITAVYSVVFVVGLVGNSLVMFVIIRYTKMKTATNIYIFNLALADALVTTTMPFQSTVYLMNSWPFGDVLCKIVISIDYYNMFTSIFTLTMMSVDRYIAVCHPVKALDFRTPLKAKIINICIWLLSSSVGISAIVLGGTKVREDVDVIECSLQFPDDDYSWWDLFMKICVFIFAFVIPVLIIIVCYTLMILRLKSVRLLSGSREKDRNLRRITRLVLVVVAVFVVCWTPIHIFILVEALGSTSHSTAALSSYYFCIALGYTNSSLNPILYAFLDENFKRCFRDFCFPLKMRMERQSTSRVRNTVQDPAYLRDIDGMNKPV

As to `COC(=O)COC(=O)N1CCN(C(=O)Cc2ccc(Cl)c(Cl)c2)[C@@H]2[C@@H](N3CC[C@@H](O)C3)CCC[C@@H]21` [Example 105], the activation at 1 µM came to 116%. The same compound displayed a concentration giving a half-maximal response (EC50) (GTPγS EC50 (nM)) of under 10 nM.

`COC(=O)N1CCN(C(=O)Cc2ccc(F)c(Cl)c2)C2C(N3CCC(O)C3)CCCC21.Cl` (stereo not shown) [Example 110]: the “% activation functional assay at 1 μM” value is 92%. The half-maximal effective concentration (EC50) (read-out: GTPγS EC50) lay in the range of 10 to 100 nM.

`COC(=O)COC(=O)N1CCN(C(=O)Cc2ccc(Cl)c(Cl)c2)C2C(N3CCCC3)CCCC21` (racemic) [Example 67]: the activation at 1 µM came to 106%. The compound further came in with an EC50 (GTPγS EC50 (nM)) of under 10 nM.

For the compound `O=C(Cc1ccc(Cl)c(Cl)c1)N1CCN(C(=O)NCc2ccccc2)[C@H]2CCC[C@H](N3CCCC3)[C@H]21` [Example 100], the activation at 1 µM came out at 105%. The concentration giving a half-maximal response (EC50) (GTPγS EC50 (nM)) is under 10 nM.

In the case of `COC(=O)COC(=O)N1CCN(C(=O)Cc2ccc(Cl)c(Cl)c2)[C@@H]2[C@@H](N3CC[C@H](O)C3)CCC[C@@H]21` [Example 106], the activation at 1 µM stood at 92%. Besides, the EC50 (GTPγS EC50 (nM)) was under 10 nM.

With `O=C(c1ccccc1)N1CCN(C(=O)Cc2ccc(Cl)c(Cl)c2)C2C(N3CCC(O)C3)CCCC21` (stereo not shown) [R, reference compound], the “activation (% of control) at 1 μM” value is reported as 63 % of control.

Take `O=C(c1ncccn1)N1CCN(C(=O)Cc2ccc(Cl)c(Cl)c2)C2C(N3CCCC3)CCCC21` (racemic) [Example 82]: the activation at 1 µM came to 97%.

Regarding `O=C(C1CCCC1)N1CCN(C(=O)Cc2ccc(Cl)c(Cl)c2)C2C(N3CCCC3)CCCC21` (racemic) [Example 51], the activation at 1 µM was determined as 97%. This compound also yielded an EC50 (GTPγS EC50 (nM)) of under 10 nM.

With `COC(=O)CC(=O)N1CCN(C(=O)Cc2ccc(Cl)c(Cl)c2)C2C(N3CCCC3)CCCC21` (stereo not shown) [P, reference compound], the “activation (% of control) at 1 μM” value was 81 % of control. The EC50 (read-out: EC50 (nM) [35S]GTPγS binding) was 220 nM.

As to `COC(=O)N1CCN(C(=O)Cc2ccc(Cl)c(Cl)c2)C2C(N3CCC(O)C3)CCCC21` (stereo not shown) [Example 53], the “% activation functional assay at 1 μM” value is listed as 97%. The “activation (% of control) at 1 μM” value (1 µM) is recorded as 97 % of control. The compound also returned an EC50 (EC50 (nM) [35S]GTPγS binding) of 6.1 nM. The same compound displayed an EC50 (GTPγS EC50 (nM)) of under 10 nM.

Take `CCNC(=O)N1CCN(C(=O)Cc2ccc(Cl)c(Cl)c2)C2C(N3CCCC3)CCCC21` (racemic) [Example 40]: the activation at 1 µM was determined as 96%. The EC50 (GTPγS EC50 (nM)) is under 10 nM.

Take `CC(C)(C)OC(=O)N1CCN(C(=O)Cc2ccc(Cl)c(Cl)c2)[C@@H]2[C@@H](N3CCCC3)CCC[C@@H]21` (racemic) [Example 24]: the activation at 1 µM was 105%. The compound also displayed an EC50 (GTPγS EC50 (nM)) of under 10 nM.

Take `O=C(O)COC(=O)N1CCN(C(=O)Cc2ccc(Cl)c(Cl)c2)C2C(N3CCCC3)CCCC21` (racemic) [Example 69]: the activation at 1 µM was determined as 101%. In addition, the EC50 (GTPγS EC50 (nM)) lay within 10 to 100 nM.

Take `COC(=O)N1CCN(C(=O)Cc2ccc(Cl)c(Cl)c2)[C@H]2[C@H](N3CCCC3)CCC[C@H]21` (single isomer, unassigned) [Reference compound A, reference compound]: the activation at 1 µM amounted to 51%.

Consider `CCN(C)[C@H]1CCC[C@H]2[C@@H]1N(C(=O)Cc1ccc(Cl)c(Cl)c1)CCN2C(=O)OC` [Example 91], for which the activation at 1 µM came out at 106%. Besides, where the note is “GTPγS EC50 (nM)”, the EC50 was under 10 nM.

Take `O=C(Cc1ccc(Cl)c(Cl)c1)N1CCN(Cc2cnc[nH]2)C2CCCC(N3CCCC3)C21` (racemic) [Example 49]: the “activation (% of control) at 1 μM” value is given as 112 % of control and the activation at 1 µM was 112%. A half-maximal response (EC50 (nM) [35S]GTPγS binding) (EC50) required 6.65 nM. For the setting “GTPγS EC50 (nM)”, this compound returned an EC50 of under 10 nM.

For the compound `COC(=O)N1CCN(C(=O)Cc2ccc(Cl)c(F)c2)C2C(N3CCC(O)C3)CCCC21.Cl` (stereo not shown) [Example 115], the “% activation functional assay at 1 μM” value was 103%. In addition, the EC50 (read-out: GTPγS EC50) was 10 to 100 nM.

For the compound `COC(=O)N1CCN(C(=O)Cc2ccc(Cl)c(F)c2)[C@@H]2[C@@H](N3CCCC3)CCC[C@@H]21` [Example 94], the activation at 1 µM is 103%. For the same compound, the EC50 (GTPγS EC50 (nM)) was in the range of 10 to 100 nM.
